Data taken from publication PMC11842024, “Reversible male contraception by targeted inhibition of serine/threonine kinase 33” (Science (New York, N.Y.), 2024).

How the values were obtained:
male mice = assay: Fertility analysis and reversibility in male mice; type: in vivo
Procedure: On the basis of molecular modeling, mouse and human STK33 have identical ATP binding pockets (fig. S19), consistent with evolutionary conservation and function of STK33. To determine the consequences of STK33 inhibition in vivo, we evaluated reproductive outcomes in male mice dosed with CDD-2807. […] In protocol 1, adult male mice (n = 6 per cohort) were treated with vehicle control or CDD-2807 at 15 mg kg^−1 intraperitoneally twice per day for 21 days, subsequently housed continuously with fertile female mice of reproductive age (two per male), and then evaluated at day 45 for effects of CDD-2807 on the male reproductive tract (after the first litter was born) or continued to be housed with the females until day 66 after the completion of the 60-day breeding data collection (fig. S21A). In protocol 2, adult male mice (n = 7 per cohort) were treated with vehicle control or CDD-2807 at 50 mg kg^−1 once per day for 21 days, subsequently housed continuously with females (two per male), and then evaluated at later time points (fig. S21B). […] In month 2, litters were born to all females housed with the six control males (2.0 ± 0 litters per male; 7.25 ± 0.17 pups per female per litter) (Fig. 4A). By contrast, no litters were produced by females housed with males who received CDD-2807 (Fig. 4A). For protocol 2 mice, all seven control males sired litters from both females in month 1 (7.29 ± 0.18 pups per litter per female), whereas only one female became pregnant and delivered a single pup from the seven CDD-2807–treated males (50 mg kg^−1 day^−1) (0.07 ± 0.07 pups per litter per female) (Fig. 4B). […] Thus, CDD-2807 delivery in both protocols induced a contraceptive effect. […]
Fertility analysis. Sexually mature male C57/129 hybrid mice were randomly assigned to either the vehicle control treatment or the CDD-2807 treatment groups. Drug formulation and injections were as follows: for protocol 1 mice receiving the 15 mg/kg CDD-2807 twice daily dosing had the compound dissolved in DMSO, which was injected at 5% of the final volume in 10% Captisol and water. For protocol 2 mice receiving a single daily dose of 50 mg/kg CDD-2807, the compound was dissolved in DMSO and injected at 5% in 20% Captisol and water. All injections were administered as i.p. injections, and for the 15 mg/kg CDD-2807 and DMSO control mice, the injections were delivered in the morning and the evening. Mice in the 50 mg/kg dosing received i.p. injections once in the evening. Weights were measured daily prior to drug administration and monitored throughout the entirety of the injection period. Injections were given for 21 days prior to introduction of female mice. During the fertility assessment, males were housed continuously with two C57/129 sexually mature females for 45 days to generate approximately two months of fertility data. During the fertility assessment, the total number of pups born per litter sired by each male were counted and the total number of litters and pups sired per male over the entire trial was calculated. Mean pup number and SEM were used to determine differences in average number of […]
fig. S21. Protocol timelines of mouse breeding and reversibility study. (A) Protocol 1 represents the 15 mg/kg twice per day drug dosing of CDD-2807. Samples were collected at euthanasia on day 45 from half of the male mice, allow ing for the completion of the 30-day breeding data to be collected and to give the male mice sufficient time with their female counterparts to initiate the day 60 breeding data. After completion of the entire 60-day breeding data, protocol 1 mice were then “rested” for 21 days prior to measuring their recovery period where they were housed with females to determine fertility. ( B) Protocol 2 represents the 50 mg/kg per day drug dosing of CDD-2807. Samples were collected at euthanasia on day 63 from half of the male mice; this allowed for the entire completion of the initial breeding data prior to collections. […]

[1] = Deaths and body weight during treatment; type: in vivo, mice
Procedure: using individual calibration curves established with the corresponding tissue homogenates from untreated mice. The calibration curve was regressed with a weight of 1/x2 with high linearity (r2 […]
Spatial distribution of CDD-2807 in testis. The testis from the mice treated with CDD-2807 were attached to the Leica CM3050 S cryostat (Leica Biosystems, Deer Park, IL) with water and then sectioned at the thickness of 10 μm at −20°C. The sections were attached to electrically conductive glass slides coated with indium tin oxide ([…], 70-100 ohms, Delta Technologies, Loveland, CO). Tissue sections were sprayed with a matrix solution containing 35 mg/mL 2,5-dihydroxybenzoic acid (DHB, Sigma, St. Louis, MO) in 70% aqueous CH3OH with 0.1% trifluoroacetic acid using an HTX TM-Sprayer (HTX Technologies LLC, Carrboro, NC). Sprayer nozzle temperature was set at 70°C, tray temperature at 40°C, nozzle velocity at 1200 mm/min, track spacing at 2 mm, drying time for 10 sec and nitrogen gas pressure at 10 psi. The data were collected on the Bruker TimsTOF MS MALDI-2 instrument with the resolution at 40 µm/pixel (mass range 100−1000 Da under the positive mode) using DHB ion as the on-line calibrant. The data was analyzed, and the images were plotted by SciLs Lab software (Bruker, Billerica, MA). […]
Alanine transaminase (ALT) and aspartate transaminase (AST) assays. […] ALT and AST levels were measured in duplicates using assay kits (StanBio, Boerne, TX) according to the manufacturer's instructions. ALT and AST levels were determined using the rate of NADH oxidation, which was quantified by measuring absorbance at 340 nm using a CLARIOstar plate reader (BMG Labtech in Cary, NC). ALT and AST were tested for significance at multiple collection time points, tests for significance included a test for normality (Shapiro-Wilk test) and following the test for normality were then analyzed using an unpaired t-test with significance determined by an alpha of P = 0.05. […]
Fertility analysis. […] Weights were measured daily prior to drug administration and monitored throughout the entirety of the injection period. […]

Compound: O=C(c1ccc2[nH]nc(C#Cc3ccccc3-c3ccccc3)c2c1)N1CC2(CCCNC2)C1 [CDD-2807]
- litters per male (male mice; protocol 1 (15 mg/kg i.p. twice per day), month 1): 1.0 ± 0.37 litters per male
- pups per female per litter (male mice; protocol 1, month 1): 0.92 ± 0.34 pups per female per litter
- treated males that sired litters (male mice; protocol 1, month 1): four of the six
- litters produced by females housed with treated males (male mice; protocol 1, month 2): no litters
- pups per litter per female after recovery (male mice; protocol 1, treatment halted at day 63, 21 days rest, first month of breeding): 7.67 ± 0.61 pups per litter per female
- pups per litter per female (male mice; protocol 2 (50 mg/kg/day i.p.), month 1): 0.07 ± 0.07 pups per litter per female
- time to sire first litters after treatment (fertility resumption) (male mice; protocol 2, after completion of treatment): 53.5 ± 5.1 days
- litters sired (male mice; protocol 2, month 2): did not sire any litters
- mouse body weights ([1]; 50 mg/kg/day for 7 days (Protocol 3)): 27.05 ± 0.79 g
- deaths during the period of treatment ([1]; protocols 1 and 2): no deaths
- weight changes during the period of treatment ([1]; protocols 1 and 2): no significant weight changes
